Test results: PMC4457528, “Identification of Novel Small Molecule Inhibitors of Oncogenic RET Kinase” (PLoS ONE, 2015)
Like-named read-outs stand apart in the source and are kept apart here.

Tests used:
Assay in all cases: KinomeScan kinase panel, single concentration 10 µM
Format in all cases: binding
KinomeScan kinase panel [1] = target: T1, KinomeScan kinase panel (Homo sapiens, UniProt O75582); settings: 10 µM, read-out: score (%)
T1 construct: purchased DiscoveRx (KinomeScan)

KinomeScan kinase panel [2] = target: T2, KinomeScan kinase panel (Homo sapiens, UniProt P10721, T670I/V559D); settings: KIT(V559D.T670I), 10 µM; read-out: score (%)
T2 construct: purchased DiscoveRx (KinomeScan)

KinomeScan kinase panel [3] = target: T3, KinomeScan kinase panel (Homo sapiens, UniProt P16591); settings: FER, 10 µM; read-out: score (%)
T3 construct: purchased DiscoveRx (KinomeScan)

KinomeScan kinase panel [4] = target: T4, KinomeScan kinase panel (Homo sapiens, UniProt P27037); settings: ACVR2A, 10 µM; read-out: score (%)
T4 construct: purchased DiscoveRx (KinomeScan)

KinomeScan kinase panel [5] = target: T5, KinomeScan kinase panel (Homo sapiens, UniProt P37173); settings: read-out: score (%)
T5 construct: purchased DiscoveRx (KinomeScan)

KinomeScan kinase panel [6] = target: T6, KinomeScan kinase panel (Homo sapiens, UniProt P48736); settings: PIK3CG, 10 µM; read-out: score (%)
T6 construct: purchased DiscoveRx (KinomeScan)

KinomeScan kinase panel [7] = target: T7, KinomeScan kinase panel (Homo sapiens, UniProt P50613); settings: CDK7, 10 µM; read-out: score (%)
T7 construct: purchased DiscoveRx (KinomeScan)

KinomeScan kinase panel [8] = target: T8, KinomeScan kinase panel (Homo sapiens, UniProt Q12851); settings: MAP4K2, 10 µM; read-out: score (%)
T8 construct: purchased DiscoveRx (KinomeScan)
T8 sequence (Q12851 1-820): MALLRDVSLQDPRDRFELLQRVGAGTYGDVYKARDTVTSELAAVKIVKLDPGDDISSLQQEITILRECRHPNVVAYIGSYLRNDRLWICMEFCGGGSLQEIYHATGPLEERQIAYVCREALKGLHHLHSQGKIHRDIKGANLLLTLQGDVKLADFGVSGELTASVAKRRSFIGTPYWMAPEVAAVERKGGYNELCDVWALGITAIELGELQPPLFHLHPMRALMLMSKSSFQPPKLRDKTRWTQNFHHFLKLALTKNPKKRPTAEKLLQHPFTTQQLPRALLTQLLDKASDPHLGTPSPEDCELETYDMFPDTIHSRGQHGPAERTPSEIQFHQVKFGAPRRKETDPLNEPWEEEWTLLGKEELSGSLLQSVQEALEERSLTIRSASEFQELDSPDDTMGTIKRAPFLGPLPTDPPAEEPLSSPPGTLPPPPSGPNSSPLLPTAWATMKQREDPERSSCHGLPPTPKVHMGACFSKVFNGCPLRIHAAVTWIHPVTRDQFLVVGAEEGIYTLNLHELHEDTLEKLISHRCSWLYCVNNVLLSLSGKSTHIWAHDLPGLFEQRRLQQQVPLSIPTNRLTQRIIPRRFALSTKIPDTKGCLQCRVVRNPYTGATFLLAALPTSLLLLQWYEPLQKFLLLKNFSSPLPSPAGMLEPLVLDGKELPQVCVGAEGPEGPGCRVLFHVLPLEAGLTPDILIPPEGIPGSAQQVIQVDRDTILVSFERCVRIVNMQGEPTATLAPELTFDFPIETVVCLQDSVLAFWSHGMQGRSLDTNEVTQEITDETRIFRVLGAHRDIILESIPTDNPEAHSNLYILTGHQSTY

KinomeScan kinase panel [9] = target: T9, KinomeScan kinase panel (Homo sapiens, UniProt Q14012); settings: CAMK1, 10 µM; read-out: score (%)
T9 construct: purchased DiscoveRx (KinomeScan)

KinomeScan kinase panel [10] = target: T10, KinomeScan kinase panel (Homo sapiens, UniProt Q16584); settings: MLK3, 10 µM
T10 construct: purchased DiscoveRx (KinomeScan)

KinomeScan kinase panel [11] = target: T11, KinomeScan kinase panel (Homo sapiens, UniProt Q86YV6); settings: read-out: score (%)
T11 construct: purchased DiscoveRx (KinomeScan)
T11 sequence (Q86YV6 1-388): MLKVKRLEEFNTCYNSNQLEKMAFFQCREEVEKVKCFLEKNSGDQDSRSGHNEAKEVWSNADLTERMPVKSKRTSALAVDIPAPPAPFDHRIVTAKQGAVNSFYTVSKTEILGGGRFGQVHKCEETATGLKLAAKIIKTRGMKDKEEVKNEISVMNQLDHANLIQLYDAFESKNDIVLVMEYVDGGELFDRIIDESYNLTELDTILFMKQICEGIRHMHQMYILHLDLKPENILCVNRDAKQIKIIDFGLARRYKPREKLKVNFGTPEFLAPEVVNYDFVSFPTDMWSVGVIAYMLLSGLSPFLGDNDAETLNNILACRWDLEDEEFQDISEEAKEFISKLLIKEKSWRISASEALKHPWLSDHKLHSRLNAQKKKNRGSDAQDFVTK

KinomeScan kinase panel [12] = target: T12, KinomeScan kinase panel (Homo sapiens, UniProt Q8N5S9); settings: CAMKK1, 10 µM; read-out: score (%)
T12 construct: purchased DiscoveRx (KinomeScan)

KinomeScan kinase panel [13] = target: T13, KinomeScan kinase panel (Homo sapiens, UniProt Q9H1R3); settings: MYLK2, 10 µM; read-out: score (%)
T13 construct: purchased DiscoveRx (KinomeScan)

KinomeScan kinase panel [14] = target: T14, KinomeScan kinase panel (Homo sapiens, UniProt Q9UM73); settings: ALK, 10 µM; read-out: score (%)
T14 construct: purchased DiscoveRx (KinomeScan)

[15] = kinase RPS6KA5(Kin.Dom.1-N-terminal)
[16] = kinase RPS6KA5(Kin.Dom.2-C-terminal)

T4 sequence (P27037 20-513): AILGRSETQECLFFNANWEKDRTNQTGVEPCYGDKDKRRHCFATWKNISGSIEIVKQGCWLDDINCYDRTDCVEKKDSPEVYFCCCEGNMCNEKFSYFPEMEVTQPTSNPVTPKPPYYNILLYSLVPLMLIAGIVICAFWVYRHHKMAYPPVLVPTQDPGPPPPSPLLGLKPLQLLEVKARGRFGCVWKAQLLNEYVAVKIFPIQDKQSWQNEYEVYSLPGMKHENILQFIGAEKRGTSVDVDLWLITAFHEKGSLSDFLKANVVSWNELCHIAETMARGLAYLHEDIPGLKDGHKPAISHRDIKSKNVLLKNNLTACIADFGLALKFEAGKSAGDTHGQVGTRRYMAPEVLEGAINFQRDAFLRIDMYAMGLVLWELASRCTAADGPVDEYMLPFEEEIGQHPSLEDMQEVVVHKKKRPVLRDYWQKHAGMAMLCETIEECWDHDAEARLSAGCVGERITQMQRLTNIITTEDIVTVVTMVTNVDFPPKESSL
T14 sequence (Q9UM73 19-1620): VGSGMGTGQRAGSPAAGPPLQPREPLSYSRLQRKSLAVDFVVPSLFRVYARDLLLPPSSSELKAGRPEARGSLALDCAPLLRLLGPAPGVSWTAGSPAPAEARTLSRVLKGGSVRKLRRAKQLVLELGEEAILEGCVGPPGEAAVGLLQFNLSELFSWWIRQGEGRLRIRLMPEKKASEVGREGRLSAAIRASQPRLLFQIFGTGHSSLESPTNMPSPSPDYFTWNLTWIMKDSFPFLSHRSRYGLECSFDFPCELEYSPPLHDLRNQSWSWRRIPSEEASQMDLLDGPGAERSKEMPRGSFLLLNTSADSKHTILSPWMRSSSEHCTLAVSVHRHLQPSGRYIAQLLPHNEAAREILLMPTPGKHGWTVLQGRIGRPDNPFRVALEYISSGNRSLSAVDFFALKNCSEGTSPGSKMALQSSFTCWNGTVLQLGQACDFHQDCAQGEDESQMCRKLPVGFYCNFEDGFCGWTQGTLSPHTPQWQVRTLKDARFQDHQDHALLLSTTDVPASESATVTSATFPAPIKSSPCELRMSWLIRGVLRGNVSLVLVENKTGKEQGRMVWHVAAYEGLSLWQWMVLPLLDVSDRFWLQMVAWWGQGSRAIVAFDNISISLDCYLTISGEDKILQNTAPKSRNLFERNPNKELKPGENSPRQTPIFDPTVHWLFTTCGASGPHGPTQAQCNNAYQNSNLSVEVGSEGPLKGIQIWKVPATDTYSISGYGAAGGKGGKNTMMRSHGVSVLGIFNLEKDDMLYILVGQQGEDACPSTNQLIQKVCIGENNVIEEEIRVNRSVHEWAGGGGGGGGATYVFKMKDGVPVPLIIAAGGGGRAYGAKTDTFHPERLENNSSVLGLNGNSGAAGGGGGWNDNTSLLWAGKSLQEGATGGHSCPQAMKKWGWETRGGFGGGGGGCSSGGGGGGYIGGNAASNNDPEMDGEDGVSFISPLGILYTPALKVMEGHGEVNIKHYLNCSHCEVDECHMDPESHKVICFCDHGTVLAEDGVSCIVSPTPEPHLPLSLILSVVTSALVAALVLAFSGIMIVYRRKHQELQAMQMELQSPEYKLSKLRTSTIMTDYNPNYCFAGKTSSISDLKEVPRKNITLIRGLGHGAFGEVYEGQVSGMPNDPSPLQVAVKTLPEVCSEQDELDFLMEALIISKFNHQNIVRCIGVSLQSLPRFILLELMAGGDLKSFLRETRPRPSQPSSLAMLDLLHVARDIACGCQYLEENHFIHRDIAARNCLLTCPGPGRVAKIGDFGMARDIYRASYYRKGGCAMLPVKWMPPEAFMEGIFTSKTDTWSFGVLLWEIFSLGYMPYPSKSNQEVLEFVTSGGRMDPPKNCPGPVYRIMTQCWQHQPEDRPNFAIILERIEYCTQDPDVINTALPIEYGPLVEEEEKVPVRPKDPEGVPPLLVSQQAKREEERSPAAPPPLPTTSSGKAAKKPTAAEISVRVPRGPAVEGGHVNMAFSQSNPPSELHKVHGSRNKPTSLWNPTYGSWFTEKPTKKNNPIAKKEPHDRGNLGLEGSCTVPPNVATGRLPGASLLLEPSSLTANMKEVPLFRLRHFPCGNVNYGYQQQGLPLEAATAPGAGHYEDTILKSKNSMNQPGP
T5 sequence (P37173 23-567): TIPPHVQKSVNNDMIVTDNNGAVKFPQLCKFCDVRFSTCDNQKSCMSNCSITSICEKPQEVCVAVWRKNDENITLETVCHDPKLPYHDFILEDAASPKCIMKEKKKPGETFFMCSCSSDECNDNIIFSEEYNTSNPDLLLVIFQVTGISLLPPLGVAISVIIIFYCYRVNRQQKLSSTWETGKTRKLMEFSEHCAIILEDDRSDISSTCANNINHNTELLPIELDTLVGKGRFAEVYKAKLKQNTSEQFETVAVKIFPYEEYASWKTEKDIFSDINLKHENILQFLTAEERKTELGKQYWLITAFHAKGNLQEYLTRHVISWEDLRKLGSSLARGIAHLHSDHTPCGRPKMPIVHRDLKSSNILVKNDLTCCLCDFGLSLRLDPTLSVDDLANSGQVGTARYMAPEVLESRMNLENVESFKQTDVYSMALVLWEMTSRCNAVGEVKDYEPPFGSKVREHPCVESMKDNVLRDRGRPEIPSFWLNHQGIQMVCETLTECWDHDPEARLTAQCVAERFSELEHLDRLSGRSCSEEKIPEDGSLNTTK
T10 sequence (Q16584 whole entry): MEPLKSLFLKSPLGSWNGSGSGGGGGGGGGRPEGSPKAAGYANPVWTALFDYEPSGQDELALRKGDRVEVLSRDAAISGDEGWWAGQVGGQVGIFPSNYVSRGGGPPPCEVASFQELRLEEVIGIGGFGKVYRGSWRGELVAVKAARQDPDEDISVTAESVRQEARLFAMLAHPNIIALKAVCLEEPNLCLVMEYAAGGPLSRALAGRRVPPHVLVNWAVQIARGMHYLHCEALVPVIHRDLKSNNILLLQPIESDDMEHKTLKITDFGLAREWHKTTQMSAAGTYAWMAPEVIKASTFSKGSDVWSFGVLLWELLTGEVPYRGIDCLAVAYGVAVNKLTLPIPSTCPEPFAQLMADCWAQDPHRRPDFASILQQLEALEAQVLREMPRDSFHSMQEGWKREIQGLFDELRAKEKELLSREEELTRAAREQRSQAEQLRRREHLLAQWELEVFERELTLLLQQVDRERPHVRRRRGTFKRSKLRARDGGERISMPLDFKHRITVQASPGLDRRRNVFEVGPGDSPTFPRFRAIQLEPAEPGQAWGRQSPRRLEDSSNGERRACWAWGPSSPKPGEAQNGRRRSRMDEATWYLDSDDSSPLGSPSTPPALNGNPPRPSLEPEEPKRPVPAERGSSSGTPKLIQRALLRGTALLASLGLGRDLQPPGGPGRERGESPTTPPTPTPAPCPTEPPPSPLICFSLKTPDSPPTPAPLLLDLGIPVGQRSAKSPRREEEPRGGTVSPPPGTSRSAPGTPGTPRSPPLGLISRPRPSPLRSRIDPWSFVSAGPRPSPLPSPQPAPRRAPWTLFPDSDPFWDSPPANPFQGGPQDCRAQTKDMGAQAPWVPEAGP
T9 sequence (Q14012 whole entry): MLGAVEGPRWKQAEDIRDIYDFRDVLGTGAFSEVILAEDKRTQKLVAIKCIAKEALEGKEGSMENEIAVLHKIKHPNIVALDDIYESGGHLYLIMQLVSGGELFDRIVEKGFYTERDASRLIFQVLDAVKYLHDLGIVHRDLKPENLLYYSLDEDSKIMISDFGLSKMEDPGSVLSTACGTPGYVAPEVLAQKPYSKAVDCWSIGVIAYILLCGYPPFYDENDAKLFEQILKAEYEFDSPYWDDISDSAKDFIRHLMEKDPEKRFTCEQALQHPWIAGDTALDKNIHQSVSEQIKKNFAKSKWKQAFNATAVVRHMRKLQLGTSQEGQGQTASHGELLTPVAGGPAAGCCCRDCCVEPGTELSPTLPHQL
T13 sequence (Q9H1R3 whole entry): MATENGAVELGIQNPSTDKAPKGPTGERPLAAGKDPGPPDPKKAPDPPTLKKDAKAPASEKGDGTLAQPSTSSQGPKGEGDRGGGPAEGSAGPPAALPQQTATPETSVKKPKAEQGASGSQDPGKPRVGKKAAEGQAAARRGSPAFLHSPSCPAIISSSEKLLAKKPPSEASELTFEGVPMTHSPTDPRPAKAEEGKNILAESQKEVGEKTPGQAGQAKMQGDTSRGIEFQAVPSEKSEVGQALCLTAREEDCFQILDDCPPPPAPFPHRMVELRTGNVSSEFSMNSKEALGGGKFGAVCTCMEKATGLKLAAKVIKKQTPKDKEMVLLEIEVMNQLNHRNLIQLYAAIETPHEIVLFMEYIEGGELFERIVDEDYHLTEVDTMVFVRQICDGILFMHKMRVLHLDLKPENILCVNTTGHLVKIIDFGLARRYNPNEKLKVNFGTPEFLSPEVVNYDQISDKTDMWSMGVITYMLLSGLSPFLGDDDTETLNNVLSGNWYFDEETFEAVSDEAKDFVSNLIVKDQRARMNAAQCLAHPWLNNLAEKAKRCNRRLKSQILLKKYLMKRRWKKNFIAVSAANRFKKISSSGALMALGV
T12 sequence (Q8N5S9 whole entry): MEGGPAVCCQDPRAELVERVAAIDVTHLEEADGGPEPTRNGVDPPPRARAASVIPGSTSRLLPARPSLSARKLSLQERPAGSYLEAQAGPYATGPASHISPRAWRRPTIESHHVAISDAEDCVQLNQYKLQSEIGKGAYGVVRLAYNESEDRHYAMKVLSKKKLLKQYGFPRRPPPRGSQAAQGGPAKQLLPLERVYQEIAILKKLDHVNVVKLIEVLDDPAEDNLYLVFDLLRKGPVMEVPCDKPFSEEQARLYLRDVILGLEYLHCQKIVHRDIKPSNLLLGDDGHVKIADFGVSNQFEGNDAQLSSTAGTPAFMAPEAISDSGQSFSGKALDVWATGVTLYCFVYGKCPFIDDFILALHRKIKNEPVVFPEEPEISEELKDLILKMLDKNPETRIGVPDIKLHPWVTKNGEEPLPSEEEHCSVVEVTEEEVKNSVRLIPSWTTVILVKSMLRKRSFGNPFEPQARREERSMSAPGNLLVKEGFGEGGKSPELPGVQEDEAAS

| remaining binding at 10 µM (KinomeScan kinase panel [1]; RPS6KA5(Kin.Dom.1)) [%] | remaining binding at 10 µM (KinomeScan kinase panel [1]; RPS6KA5(Kin.Dom.2)) [%] | remaining binding at 10 µM (KinomeScan kinase panel [5]; TGFBR2, 10 µM) [%] | remaining binding at 10 µM (KinomeScan kinase panel [11]; SgK085, 10 µM) [%] | SMILES | remaining binding at 10 µM (KinomeScan kinase panel [1]; [15]) [%] | remaining binding at 10 µM (KinomeScan kinase panel [1]; [16]) [%] | remaining binding at 10 µM (KinomeScan kinase panel [2]) [%] | remaining binding at 10 µM (KinomeScan kinase panel [3]) [%] | remaining binding at 10 µM (KinomeScan kinase panel [4]) [%] | remaining binding at 10 µM (KinomeScan kinase panel [5]; kinase TGFBR2, 10 µM) [%] | remaining binding at 10 µM (KinomeScan kinase panel [6]) [%] | remaining binding at 10 µM (KinomeScan kinase panel [7]) [%] | remaining binding at 10 µM (KinomeScan kinase panel [8]) [%] | remaining binding at 10 µM (KinomeScan kinase panel [9]) [%] | score (%) (KinomeScan kinase panel [10]) | remaining binding at 10 µM (KinomeScan kinase panel [11]; MYLK4, 10 µM) [%] | remaining binding at 10 µM (KinomeScan kinase panel [12]) [%] | remaining binding at 10 µM (KinomeScan kinase panel [13]) [%] | remaining binding at 10 µM (KinomeScan kinase panel [14]) [%] | remaining binding at 10 µM (KinomeScan kinase panel [11]; kinase SgK085, 10 µM) [%] |
| --- | --- | --- | --- | --- | --- | --- | --- | --- | --- | --- | --- | --- | --- | --- | --- | --- | --- | --- | --- | --- |
|  |  |  |  | CCN1CCN(Cc2ccc(NC(=O)c3ccc(C)c(C#Cc4cccnc4)c3)cc2C(F)(F)F)CC1 [XMD15-44] | 59 | 100 | 0 | 11 | > 30 | 1.3 | 100 | 1.6 | 0 | > 30 | 17% | > 30 | > 30 | 3.4 | 23 |  |
| > 30 | > 30 | 2.8 | 8.5 | CCN1CCN(Cc2ccc(NC(=O)c3ccc(C)c(/C=C/c4cnc5[nH]ccc5c4Cl)c3)cc2C(F)(F)F)CC1 [HG-6-63-01, (E)-3-(2-(4-chloro-1H-pyrrolo[2,3-b]pyridin-5-yl)vinyl)-N-(4-((4-ethylpiperazin-1-yl)methyl)-3-(trifluoromethyl)phenyl)-4-methylbenzamide] |  |  | 0 | 14 | > 30 |  | > 30 | > 30 | 0.25 | > 30 | 0.8% |  | > 30 | 0.25 | > 30 |  |
|  |  |  |  | CCN1CCN(Cc2ccc(NC(=O)c3ccc(C)c(NC(=O)c4cncc(-c5cccs5)c4)c3)cc2C(F)(F)F)CC1 [ALW-II-41-27] | 11 | > 30 | 0.05 | 5.6 | > 30 | 4.6 | > 30 | 26 | 0.6 | > 30 | nb (Hits values higher than 30% were considered negative (no binding: nb)) |  | 33 | > 30 | > 30 | > 30 |
